Data published in patent publication US10323022B2, “Pyrrolidinyl urea, pyrrolidinyl thiourea and pyrrolidinyl guanidine compounds as TrkA kinase inhibitors” (Array BioPharma Inc., priority 2011, dated 2019).

Target: TrkA (Homo sapiens (Human), UniProt P04629)
Test: TrkA Omnia Assay
Format: biochemical
Conditions: averaged IC50; 20 nM enzyme, 500 μM ATP, 10 μM peptide substrate
Procedure, shortened: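 Continuous fluorescent kinase read-out (ex 360 nm, em 485 nm) over 70 min, with initial rates fitted to 4- or 5-parameter logistic curves for IC50. Final conditions: 500 μM ATP, 10 μM Omnia Tyr Peptide #4, 20 nM TrkA, MOPS pH 7.5 buffer with MgCl2 and Triton X-100; enzyme and compound preincubated 10 min at ambient temperature.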

Sequence of TrkA (P04629 33-796): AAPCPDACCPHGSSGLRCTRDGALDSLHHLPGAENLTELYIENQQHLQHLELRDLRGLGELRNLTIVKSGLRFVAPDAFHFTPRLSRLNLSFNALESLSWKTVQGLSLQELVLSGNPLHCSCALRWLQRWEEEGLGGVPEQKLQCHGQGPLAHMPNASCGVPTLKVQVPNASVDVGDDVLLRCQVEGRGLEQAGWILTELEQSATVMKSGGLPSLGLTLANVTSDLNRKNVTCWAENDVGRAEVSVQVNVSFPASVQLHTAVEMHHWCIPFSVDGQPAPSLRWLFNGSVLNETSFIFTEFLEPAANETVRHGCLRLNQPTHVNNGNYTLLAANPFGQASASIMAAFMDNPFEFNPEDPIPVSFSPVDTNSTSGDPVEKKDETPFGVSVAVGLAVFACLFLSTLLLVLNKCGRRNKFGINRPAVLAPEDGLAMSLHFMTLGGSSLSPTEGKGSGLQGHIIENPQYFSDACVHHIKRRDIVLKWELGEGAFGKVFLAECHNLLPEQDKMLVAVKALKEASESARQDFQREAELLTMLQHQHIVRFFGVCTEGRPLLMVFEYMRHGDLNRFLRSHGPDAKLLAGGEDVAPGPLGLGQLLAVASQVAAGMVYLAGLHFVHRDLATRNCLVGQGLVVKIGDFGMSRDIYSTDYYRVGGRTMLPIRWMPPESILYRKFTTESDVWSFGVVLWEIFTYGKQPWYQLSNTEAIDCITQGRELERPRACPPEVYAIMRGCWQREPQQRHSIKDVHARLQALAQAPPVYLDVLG

| SMILES | IC50 [nM] |
| --- | --- |
| CC[C@@H](O)COc1nn(-c2ccccc2)c(NC(=O)N[C@@H]2CN(CCOC)C[C@H]2c2ccc(F)c(F)c2)c1C [Example 380, 1-((3S,4R)-4-(3,4-difluorophenyl)-1-(2-methoxyethyl)pyrrolidin-3-yl)-3-(3-((R)-2-hydroxybutoxy)-4-methyl-1-phenyl-1H-pyrazol-5-yl)urea] | < 100 |
| CCOC(=O)c1nn(-c2ccccc2)c(NC(=O)N[C@@H]2CN(CCOC)C[C@H]2c2ccc(F)c(F)c2)c1Br [Example 381, ethyl 4-bromo-5-(3-((3S,4R)-4-(3,4-difluorophenyl)-1-(2-methoxyethyl)pyrrolidin-3-yl)ureido)-1-phenyl-1H-pyrazole-3-carboxylate] | < 100 |
| COCCN1C[C@@H](NC(=O)Nc2c(C)c(-c3cnn(CCOC)c3)nn2-c2ccccc2)[C@H](c2ccc(F)cc2)C1 [Example 382, 1-((3S,4R)-4-(4-fluorophenyl)-1-(2-methoxyethyl)pyrrolidin-3-yl)-3-(1′-(2-methoxyethyl)-4-methyl-1-phenyl-1H,1′H-[3,4′-bipyrazol]-5-yl)urea] | < 100 |
| COCCN1C[C@@H](NC(=O)Nc2c(C)c(-c3cnn(CCOC)c3)nn2-c2ccccc2)[C@H](c2cccc(F)c2)C1 [Example 383, 1-((3S,4R)-4-(3-fluorophenyl)-1-(2-methoxyethyl)pyrrolidin-3-yl)-3-(1′-(2-methoxyethyl)-4-methyl-1-phenyl-1H,1′H-[3,4′-bipyrazol]-5-yl)urea] | < 100 |
| COCCN1C[C@@H](NC(=O)Nc2c(C)c(-c3cnn(C)n3)nn2-c2ccccc2)[C@H](c2cccc(F)c2)C1 [Example 384, 1-((3S,4R)-4-(3-fluorophenyl)-1-(2-methoxyethyl)pyrrolidin-3-yl)-3-(4-methyl-3-(2-methyl-2H-1,2,3-triazol-4-yl)-1-phenyl-1H-pyrazol-5-yl)urea] | < 100 |
| COCCN1C[C@@H](NC(=O)Nc2c(C)c(-c3cnn(C)n3)nn2-c2ccccc2)[C@H](c2ccc(F)cc2)C1 [Example 385, 1-((3S,4R)-4-(4-fluorophenyl)-1-(2-methoxyethyl)pyrrolidin-3-yl)-3-(4-methyl-3-(2-methyl-2H-1,2,3-triazol-4-yl)-1-phenyl-1H-pyrazol-5-yl)urea] | < 100 |
| COCCN1C[C@@H](NC(=O)Nc2c(C)c(OCCN3CCOCC3)nn2-c2ccccc2)[C@H](c2ccc(F)c(F)c2)C1 [Example 386, 1-((3S,4R)-4-(3,4-difluorophenyl)-1-(2-methoxyethyl)pyrrolidin-3-yl)-3-(4-methyl-3-(2-morpholinoethoxy)-1-phenyl-1H-pyrazol-5-yl)urea] | < 100 |
| COCCN1C[C@@H](NC(=O)Nc2c(C)c(OCCN3C(=O)c4ccccc4C3=O)nn2-c2ccccc2)[C@H](c2ccc(F)c(F)c2)C1 [Example 387, 1-((3S,4R)-4-(3,4-difluorophenyl)-1-(2-methoxyethyl)pyrrolidin-3-yl)-3-(3-(2-(1,3-dioxoisoindolin-2-yl)ethoxy)-4-methyl-1-phenyl-1H-pyrazol-5-yl)urea] | < 100 |
| COCCN1C[C@@H](NC(=O)Nc2c(C)c(OCCN3CCN(C(=O)OC(C)(C)C)CC3)nn2-c2ccccc2)[C@H](c2ccc(F)c(F)c2)C1 [Example 388, tert-butyl 4-(2-((5-(3-((3S,4R)-4-(3,4-difluorophenyl)-1-(2-methoxyethyl)pyrrolidin-3-yl)ureido)-4-methyl-1-phenyl-1H-pyrazol-3-yl)oxy)ethyl)piperazine-1-carboxylate] | < 100 |
| COCCN1C[C@@H](NC(=O)Nc2c3ccccc3nn2-c2ccccc2)[C@H](c2ccccc2)C1 [Example 389] | < 100 |
| COCCN1C[C@@H](NC(=O)Nc2c3ccccc3nn2-c2ccccc2)[C@H](c2ccc(F)c(F)c2)C1 [Example 390, 1-((3S,4R)-4-(3,4-difluorophenyl)-1-(2-methoxyethyl)pyrrolidin-3-yl)-3-(2-phenyl-2H-indazol-3-yl)urea] | < 100 |
| COCCN1C[C@@H](NC(=O)Nc2c(C)c(OCc3ncn(C)n3)nn2-c2ccccc2)[C@H](c2ccc(F)c(F)c2)C1 [Example 391, 1-((3S,4R)-4-(3,4-difluorophenyl)-1-(2-methoxyethyl)pyrrolidin-3-yl)-3-(4-methyl-3-((1-methyl-1H-1,2,4-triazol-3-yl)methoxy)-1-phenyl-1H-pyrazol-5-yl)urea] | < 100 |
| COCCN1C[C@@H](NC(=O)Nc2c(C)c(OC[C@@H]3COC(C)(C)O3)nn2-c2ccccc2)[C@H](c2cc(F)cc(F)c2)C1 [Example 392, 1-((3S,4R)-4-(3,5-difluorophenyl)-1-(2-methoxyethyl)pyrrolidin-3-yl)-3-(3-(((R)-2,2-dimethyl-1,3-dioxolan-4-yl)methoxy)-4-methyl-1-phenyl-1H-pyrazol-5-yl)urea] | < 100 |
| COCCN1C[C@@H](NC(=O)Nc2c(C)c(OC[C@H]3COC(C)(C)O3)nn2-c2ccccc2)[C@H](c2cc(F)cc(F)c2)C1 [Example 393, 1-((3S,4R)-4-(3,5-difluorophenyl)-1-(2-methoxyethyl)pyrrolidin-3-yl)-3-(3-(((S)-2,2-dimethyl-1,3-dioxolan-4-yl)methoxy)-4-methyl-1-phenyl-1H-pyrazol-5-yl)urea] | < 100 |
| CCOc1nn(-c2cnccn2)c(NC(=O)N[C@@H]2CN(CCOC)C[C@H]2c2ccc(F)c(F)c2)c1C [Example 394, 1-((3S,4R)-4-(3,4-difluorophenyl)-1-(2-methoxyethyl)pyrrolidin-3-yl)-3-(3-ethoxy-4-methyl-1-(pyrazin-2-yl)-1H-pyrazol-5-yl)urea] | 100 to 1000 |
| COCCN1C[C@@H](NC(=O)Nc2c3c(nn2-c2ccnnc2)CCC3)[C@H](c2ccc(F)c(F)c2)C1 [Example 395, 1-((3S,4R)-4-(3,4-difluorophenyl)-1-(2-methoxyethyl)pyrrolidin-3-yl)-3-(2-(pyridazin-4-yl)-2,4,5,6-tetrahydrocyclopenta[c]pyrazol-3-yl)urea] | 100 to 1000 |
| COCCN1C[C@@H](NC(=O)Nc2c(C)c(OC(=O)N(C)C)nn2-c2ccccc2)[C@H](c2ccc(F)c(F)c2)C1 [Example 396, 5-(3-((3S,4R)-4-(3,4-difluorophenyl)-1-(2-methoxyethyl)pyrrolidin-3-yl)ureido)-4-methyl-1-phenyl-1H-pyrazol-3-yl dimethylcarbamate] | < 100 |
| COCCN1C[C@@H](NC(=O)Nc2c(C)c(OC(=O)N3CCOCC3)nn2-c2ccccc2)[C@H](c2ccc(F)c(F)c2)C1 [Example 397, 5-(3-((3S,4R)-4-(3,4-difluorophenyl)-1-(2-methoxyethyl)pyrrolidin-3-yl)ureido)-4-methyl-1-phenyl-1H-pyrazol-3-yl morpholine-4-carboxylate] | < 100 |
| COCCN1C[C@@H](NC(=O)Nc2c(C)c(OC[C@H]3COC(C)(C)O3)nn2-c2ccccc2)[C@H](c2cc(F)c(F)c(F)c2)C1 [Example 398, 1-(3-(((S)-2,2-dimethyl-1,3-dioxolan-4-yl)methoxy)-4-methyl-1-phenyl-1H-pyrazol-5-yl)-3-((3S,4R)-1-(2-methoxyethyl)-4-(3,4,5-trifluorophenyl)pyrrolidin-3-yl)urea] | < 100 |
| COCCN1C[C@@H](NC(=O)Nc2c(C)c(OC[C@@H]3COC(C)(C)O3)nn2-c2ccccc2)[C@H](c2cc(F)c(F)c(F)c2)C1 [Example 399, 1-(3-(((R)-2,2-dimethyl-1,3-dioxolan-4-yl)methoxy)-4-methyl-1-phenyl-1H-pyrazol-5-yl)-3-((3S,4R)-1-(2-methoxyethyl)-4-(3,4,5-trifluorophenyl)pyrrolidin-3-yl)urea] | < 100 |
| COCCN1C[C@@H](NC(=O)Nc2c(C)c(OC[C@H](C)O[Si](C)(C)C(C)(C)C)nn2-c2ccccc2)[C@H](c2cc(F)c(F)c(F)c2)C1 [Example 400, 1-(3-((S)-2-(tert-butyldimethylsilyloxy)propoxy)-4-methyl-1-phenyl-1H-pyrazol-5-yl)-3-((3S,4R)-1-(2-methoxyethyl)-4-(3,4,5-trifluorophenyl)pyrrolidin-3-yl)urea] | 100 to 1000 |
| COCCN1C[C@@H](NC(=O)Nc2c(C)c(OCC(C)(C)O)nn2-c2ccccc2)[C@H](c2cc(F)c(F)c(F)c2)C1 [Example 401, 1-(3-(2-hydroxy-2-methylpropoxy)-4-methyl-1-phenyl-1H-pyrazol-5-yl)-3-((3S,4R)-1-(2-methoxyethyl)-4-(3,4,5-trifluorophenyl)pyrrolidin-3-yl)urea] | < 100 |
| COCCN1C[C@@H](NC(=O)Nc2c(C)c(OC[C@H](COC)O[Si](C)(C)C(C)(C)C)nn2-c2ccccc2)[C@H](c2ccc(F)c(F)c2)C1 [Example 402, 1-(3-((S)-2-(tert-butyldimethylsilyloxy)-3-methoxypropoxy)-4-methyl-1-phenyl-1H-pyrazol-5-yl)-3-((3S,4R)-4-(3,4-difluorophenyl)-1-(2-methoxyethyl)pyrrolidin-3-yl)urea_] | 100 to 1000 |
| COCCN1C[C@@H](NC(=O)Nc2c(Cl)c(COC)nn2-c2ccccc2)[C@H](c2ccc(F)c(F)c2)C1 [Example 403, 1-(4-chloro-3-(methoxymethyl)-1-phenyl-1H-pyrazol-5-yl)-3-((3S,4R)-4-(3,4-difluorophenyl)-1-(2-methoxyethyl)pyrrolidin-3-yl)urea] | < 100 |
| COCCN1C[C@@H](NC(=O)Nc2c(Br)c(COC)nn2-c2ccccc2)[C@H](c2ccc(F)c(F)c2)C1 [Example 404, 1-(4-bromo-3-(methoxymethyl)-1-phenyl-1H-pyrazol-5-yl)-3-((3S,4R)-4-(3,4-difluorophenyl)-1-(2-methoxyethyl)pyrrolidin-3-yl)urea] | < 100 |
| COCCN1C[C@@H](NC(=O)Nc2c(Cl)c(COC)nn2-c2ccccc2)[C@H](c2cc(F)cc(F)c2)C1 [Example 405, 1-(4-chloro-3-(methoxymethyl)-1-phenyl-1H-pyrazol-5-yl)-3-((3S,4R)-4-(3,5-difluorophenyl)-1-(2-methoxyethyl)pyrrolidin-3-yl)urea] | < 100 |
